Legend:
CYPDI = experiment: Example I postemergence foliar-applied, greenhouse, direct seeded rice weeds; format: in vivo, Cyperus difformis L.; conditions: 4.38 gae/ha
Source text: (§1) Seeds or nutlets of the desired test plant species were planted in a soil matrix prepared by mixing a loam or sandy loam soil (e.g., 28.6 percent silt, 18.8 percent clay, and 52.6 percent sand, with a pH of about 5.8 and an organic matter content of about 1.8 percent) and calcareous grit in an 80 to 20 ratio. The soil matrix was contained in plastic pots with a volume of 1 quart and a surface area of 83.6 square centimeters (cm^2). When required to ensure good germination and healthy plants, a fungicide treatment and/or other chemical or physical treatment was applied. The plants were grown for 8-22 days in a greenhouse with an approximate 14 hr. photoperiod which was maintained at about 29° C. during the day and 26° C. during the night. Nutrients (Peters Excel® 15-5-15 5-Ca 2-Mg and iron chelate) were applied in the irrigation solution as needed and water was added on a regular basis. Supplemental lighting was provided with overhead metal halide 1000-Watt lamps as necessary. The plants were employed for testing when they reached the first through fourth true leaf stage.
Treatments consisted of the acid or esters of 4-amino-3-chloro-5-fluoro-6-(4-chloro-2-fluoro-3-methoxy-phenyl)pyridine-2-carboxylic acid (Compound A), each formulated as an SC (suspension concentrate), and various herbicidal components alone and in combination.
Other herbicidal components were applied on an acid equivalent (ae) or active ingredient (ai) basis and included acetyl coA carboxylase (ACCase)-inhibiting herbicides (cyclohexanedione and aryloxyphenoxypropionate chemical classes) cyhalofop-butyl formulated as Clincher® SF (285 gr ai/L EC), diclofop-methyl formulated as Hoelon® 3EC, fenoxaprop-p-ethyl+isoxadifen-ethyl formulated as RiceStar® HT (0.58 lb./gal EC), fenoxaprop-p-ethyl+mefenpyr diethyl formulated as Puma® IEC, metamifop formulated as Metamifop EC, haloxyfop-methyl formulated as Gallant Super®, fluazifop-p-butyl formulated as Fusilade® DX, quizalofop-p-ethyl formulated as Assure® II, profoxydim formulated as Aura® 20EC, clethodim applied as Intensity®, sethoxydim formulated as Poast®, and tralkoxydim formulated as Achieve®.
(§2) Treatment requirements were calculated based upon the rates being tested, the concentration of active ingredient or acid equivalent in the formulation, and a 12 mL application volume at a rate of 187 L/ha.
For treatments comprised of formulated compounds, measured amounts of compounds were placed individually in 25 mL glass vials and diluted in a volume of 1.25% (v/v) Agri-Dex® crop oil concentrated to obtain 12× stock solutions. […] Application solutions were prepared by adding an appropriate amount of each stock solution (e.g., 1 mL) and diluted to the appropriate final concentrations with the addition of 10 mL of an aqueous mixture of 1.25% (v/v) crop oil concentrate so that the final spray solutions contained 1.25+/−0.05% (v/v) crop oil concentrate.
All stock solutions and applications solutions were visually inspected for compound compatibility prior to application. […]
(§3) The treated plants and control plants were placed in a greenhouse as described above and watered by sub-irrigation to prevent wash-off of the test compounds. After approximately 3 weeks, the condition of the test plants as compared with that of the untreated plants was determined visually and scored on a scale of 0 to 100 percent where 0 corresponds to no injury or growth inhibition and 100 corresponds to complete kill. […]

DIGSA = experiment: as above; format: in vivo, Digitaria sanguinalis (L.) Scop.
Source text: as §1
Treatments consisted of the acid or esters of 4-amino-3-chloro-5-fluoro-6-(4-chloro-2-fluoro-3-methoxy-phenyl)pyridine-2-carboxylic acid (Compound A), each formulated as an SC (suspension concentrate), and various herbicidal components alone and in combination. […]
as §2
For treatments comprised of formulated compounds, measured amounts of compounds were placed individually in 25 mL glass vials and diluted in a volume of 1.25% (v/v) Agri-Dex® crop oil concentrated to obtain 12× stock solutions. […]
as §3

AVEFA = experiment: Example IV postemergence foliar-applied, greenhouse, cereal crops weeds; format: in vivo, Avena fatua L.
Experimental: Seeds of the desired test plant species were planted in Sun Gro MetroMix® 306 planting mixture, which typically has a pH of 6.0 to 6.8 and an organic matter content of about 30 percent, in plastic pots with a surface area of 103.2 square centimeters (cm^2). When required to ensure good germination and healthy plants, a fungicide treatment and/or other chemical or physical treatment was applied. The plants were grown for 7-36 days in a greenhouse with an approximate 14 hour photoperiod which was maintained at about 18° C. during the day and about 17° C. during the night. Nutrients and water were added on a regular basis and supplemental lighting was provided with overhead metal halide 1000-Watt lamps as necessary. The plants were employed for testing when they reached the second or third true leaf stage.
Treatments consisted of the benzyl ester of 4-amino-3-chloro-5-fluoro-6-(4-chloro-2-fluoro-3-methoxy-phenyl)pyridine-2-carboxylic acid (Compound A), formulated as an SC, a second cereal herbicide alone and then both in combination.
Other herbicidal components were applied on an active ingredient basis and included acetyl-CoA carboxylase (ACCase)-inhibiting herbicides clodinafop-propargyl, fenoxaprop-P-ethyl, pinoxaden and tralkoxydim.
Measured aliquots of benzyl ester of 4-amino-3-chloro-5-fluoro-6-(4-chloro-2-fluoro-3-methoxy-phenyl)pyridine-2-carboxylic acid (Compound A) were placed in 25 milliliter (mL) glass vials and diluted in a volume of 1.25% (v/v) Agri-Dex® crop oil concentrate to obtain stock solutions. Compound requirements are based upon a 12 mL application volume at a rate of 187 liters per hectare (L/ha). Spray solutions of the second cereal herbicide and experimental compound mixtures were prepared by adding the stock solutions to the appropriate amount of dilution solution to form 12 mL spray solution with active ingredients in two- and three-way combinations. Formulated compounds were applied to the plant material with an overhead Mandel track sprayer equipped with an 8002E nozzle calibrated to deliver 187 L/ha over an application area of 0.503 square meters (m^2) at a spray height of 18 inches (46 cm) above average plant canopy. Control plants were sprayed in the same manner with the solvent blank.
as §3, with “20-22 days,” for “approximately 3 weeks,”, “control” for “untreated”, “injury” for “injury or growth inhibition”

| SMILES | Visual Weed Control (%) - 20 DAA CYPDI Obs (CYPDI) | Visual Weed Control (%) - 22 DAA CYPDI Obs (CYPDI) | Visual Weed Control (%) - 20 DAA DIGSA Obs (DIGSA; 8 gae/ha) | Visual Weed Control (%) - 20 DAA DIGSA Obs (DIGSA; 16 gae/ha) | Visual Weed Control (%) - 20 DAA DIGSA Obs (DIGSA; 32 gae/ha) | Visual Weed Control (%) - 21 DAA AVEFA Obs (AVEFA; Compound A Benzyl Ester 5 gai/ha) | Visual Weed Control (%) - 21 DAA AVEFA Obs (AVEFA; Compound A Benzyl Ester 10 gai/ha) |
| --- | --- | --- | --- | --- | --- | --- | --- |
| COc1c(Cl)ccc(-c2nc(C(=O)O)c(Cl)c(N)c2F)c1F [Compound A Acid, 4-amino-3-chloro-6-(4-chloro-2-fluoro-3-methoxyphenyl)-5-fluoropyridine-2-carboxylic acid] | 80% | 60% |  |  |  |  |  |
| COc1c(Cl)ccc(-c2nc(C(=O)OCc3ccccc3)c(Cl)c(N)c2F)c1F [Compound A Benzyl Ester, benzyl ester of 4-amino-3-chloro-5-fluoro-6-(4-chloro-2-fluoro-3-methoxy-phenyl)pyridine-2-carboxylic acid] |  |  | 15% | 25% | 35% | 0% | 0% |
